Measurements taken from article PMC10638440, “Structural basis of bile salt extrusion and small-molecule inhibition in human BSEP” (Nature Communications, 2023).

Experiments:
BSEP [1] = target: T1, BSEP (Homo sapiens, UniProt O95342); assay: cryo-EM structure of vanadate-trapped BSEP at […] Å; type: binding; parameters: gene ABCB11; full-length wild-type, nanodisc-reconstituted
BSEPE1244Q = target: T2, BSEPE1244Q (Homo sapiens, UniProt O95342, E1244Q); assay: cryo-EM structure at […] Å; type: binding
T2 construct: gene ABCB11; full-length, nanodisc-reconstituted
T2 sequence (O95342 whole entry E1244Q): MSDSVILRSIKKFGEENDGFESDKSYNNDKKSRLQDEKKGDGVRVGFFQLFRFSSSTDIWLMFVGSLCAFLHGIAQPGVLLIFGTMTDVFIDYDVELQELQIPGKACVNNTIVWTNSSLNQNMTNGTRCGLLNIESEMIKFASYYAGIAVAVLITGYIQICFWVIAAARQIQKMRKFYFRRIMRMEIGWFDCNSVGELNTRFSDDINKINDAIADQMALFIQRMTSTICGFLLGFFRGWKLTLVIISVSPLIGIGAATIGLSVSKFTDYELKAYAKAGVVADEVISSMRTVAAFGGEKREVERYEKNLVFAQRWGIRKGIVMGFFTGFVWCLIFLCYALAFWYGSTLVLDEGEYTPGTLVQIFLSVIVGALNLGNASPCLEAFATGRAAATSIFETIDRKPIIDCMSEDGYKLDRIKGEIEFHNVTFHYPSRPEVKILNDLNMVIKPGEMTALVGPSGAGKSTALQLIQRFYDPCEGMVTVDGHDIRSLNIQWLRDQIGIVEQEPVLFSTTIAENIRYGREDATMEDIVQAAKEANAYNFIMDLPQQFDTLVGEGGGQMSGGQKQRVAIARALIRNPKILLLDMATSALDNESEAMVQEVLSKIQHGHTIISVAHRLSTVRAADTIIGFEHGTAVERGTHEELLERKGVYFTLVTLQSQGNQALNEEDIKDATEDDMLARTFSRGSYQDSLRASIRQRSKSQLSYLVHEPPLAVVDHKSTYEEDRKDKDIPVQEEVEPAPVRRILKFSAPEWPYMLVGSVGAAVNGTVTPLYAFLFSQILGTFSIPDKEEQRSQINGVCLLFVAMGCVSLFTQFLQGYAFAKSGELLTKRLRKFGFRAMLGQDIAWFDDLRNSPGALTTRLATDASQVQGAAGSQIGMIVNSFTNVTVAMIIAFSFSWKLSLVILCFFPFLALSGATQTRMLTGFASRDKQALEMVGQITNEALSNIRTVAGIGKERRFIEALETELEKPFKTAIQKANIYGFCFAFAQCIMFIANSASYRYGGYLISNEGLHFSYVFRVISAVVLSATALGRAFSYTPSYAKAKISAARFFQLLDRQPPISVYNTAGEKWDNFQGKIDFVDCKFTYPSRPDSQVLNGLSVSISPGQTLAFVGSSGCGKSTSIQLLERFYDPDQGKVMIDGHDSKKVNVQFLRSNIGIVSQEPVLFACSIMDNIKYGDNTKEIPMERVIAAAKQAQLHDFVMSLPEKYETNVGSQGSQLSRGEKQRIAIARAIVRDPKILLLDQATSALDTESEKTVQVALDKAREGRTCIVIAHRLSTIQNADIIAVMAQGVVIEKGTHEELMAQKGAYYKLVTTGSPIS

BSEP [2] = target: T1, BSEP; parameters: gene ABCB11
BSEP N996A = target: T3, BSEP N996A (Homo sapiens, UniProt O95342, N996A); assay: GBM-stimulated ATPase activity ([…] GBM); type: biochemical
T3 construct: gene ABCB11; full-length
T3 sequence (O95342 whole entry N996A): as the sequence (O95342 whole entry E1244Q) above, with N996A, Q1244E counted along it

T1 sequence (O95342 whole entry): as the sequence (O95342 whole entry E1244Q) above, with Q1244E counted along it

Nc1ncnc2c1ncn2[C@@H]1O[C@H](COP(=O)(O)OP(=O)(O)O)[C@@H](O)[C@H]1O [ADP]
cryo-EM structure of vanadate-trapped BSEP at 2.8 Å (BSEP [1]): trapping ADP and preventing its release from NBS2

Nc1ncnc2c1ncn2[C@@H]1O[C@H](CO[P@@](=O)(O)O[P@](=O)(O)OP(=O)(O)O)[C@@H](O)[C@H]1O [ATP]
cryo-EM structure at 3.0 Å (BSEPE1244Q): We observed two distinct EM densities in the two NBSs, each corresponding to an ATP molecule | Km (BSEP [2]): 207 µM

COc1ccc(Cl)cc1C(=O)NCCc1ccc(S(=O)(=O)NC(=O)NC2CCCCC2)cc1 [GBM, glibenclamide]
GBM-stimulated ATPase activity (300 μM GBM) (BSEP N996A): N996A and S1022F exhibit increased basal ATPase activity compared to the wild-type BSEP, and their activity is stimulated by GBM
